Measured values published in ChEMBL document CHEMBL4270556, “Current progress on antioxidants incorporating the pyrazole core” (Eur J Med Chem, 2018).

System: SH-SY5Y
Assay: Neuroprotection against rotenone/oligomycin A-induced cell death in human SH-SY5Y cells at 1 uM preincubated for 24 hrs followed by rotenone/oligomycin A addition measured after 24 hrs by MTT assay relative to control
Assay type: functional

SMILES: Cc1[nH]nc2c1C(c1cccnc1)C(C#N)=C(N)O2 (stereo unspecified)
- Activity: 57.9%
